In paper PMC9561263 (2022) one finds ΔTm data, which are given here for one molecule.

The test deals with 32R-3n (DNA, G4) GCGGTGTGGGAAGAGGGAAGAGGGGGAGGCAG
As to the kind of experiment: UV melting, 260 nm. The following applies: 0.1 M Li+; 0.02 M Tris-HCl pH 7.0; 4 μM DNA, 40 μM ThT; psDNA.

Consider `Cc1ccc2c(c1)sc(-c1ccc(N(C)C)cc1)[n+]2C`, for which the ΔTm was ~ 19.8 °C.
